The text below walks through data of ChEMBL document CHEMBL1201862, “PubChem BioAssay data set” (2004).

For assay [1], the target named is T1, High affinity choline transporter 1 (Homo sapiens, UniProt Q9GZV3).
T1 sequence (Q9GZV3 whole entry): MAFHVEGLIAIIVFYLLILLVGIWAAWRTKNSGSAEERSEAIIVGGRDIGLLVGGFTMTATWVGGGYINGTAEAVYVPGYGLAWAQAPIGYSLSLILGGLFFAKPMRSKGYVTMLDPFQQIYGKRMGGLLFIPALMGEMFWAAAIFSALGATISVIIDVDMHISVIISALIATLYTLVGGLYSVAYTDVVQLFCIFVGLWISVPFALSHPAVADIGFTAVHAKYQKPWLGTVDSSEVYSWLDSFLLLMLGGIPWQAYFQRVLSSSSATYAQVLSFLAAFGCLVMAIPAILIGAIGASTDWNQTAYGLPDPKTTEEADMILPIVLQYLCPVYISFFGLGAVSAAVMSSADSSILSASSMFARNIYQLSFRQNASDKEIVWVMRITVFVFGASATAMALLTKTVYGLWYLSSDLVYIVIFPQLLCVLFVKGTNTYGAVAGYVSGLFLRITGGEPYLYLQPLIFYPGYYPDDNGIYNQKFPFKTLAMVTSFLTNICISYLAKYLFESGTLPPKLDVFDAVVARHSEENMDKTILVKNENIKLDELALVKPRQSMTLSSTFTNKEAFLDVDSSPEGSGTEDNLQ
Put plainly: human choline transporter blockers, potency – cell-based, 5-point CRC, membrane potential dye, dose response (AID 504840). The class given is functional.

Assay [2] deals with T1, High affinity choline transporter 1. Put plainly: human choline transporter blockers, potency – cell-based, 10-point CRC, membrane potential dye, dose response (AID 588401).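 Note: membrane potential dye fluorescence of choline-evoked depolarization via CHT.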 The class given is functional.
In assay [3] the target is T2, Corticotropin-releasing factor receptor 2/Corticotropin-releasing factor-binding protein (Homo sapiens, UniProt P24387+Q13324).
T2 sequence (Q13324 whole entry): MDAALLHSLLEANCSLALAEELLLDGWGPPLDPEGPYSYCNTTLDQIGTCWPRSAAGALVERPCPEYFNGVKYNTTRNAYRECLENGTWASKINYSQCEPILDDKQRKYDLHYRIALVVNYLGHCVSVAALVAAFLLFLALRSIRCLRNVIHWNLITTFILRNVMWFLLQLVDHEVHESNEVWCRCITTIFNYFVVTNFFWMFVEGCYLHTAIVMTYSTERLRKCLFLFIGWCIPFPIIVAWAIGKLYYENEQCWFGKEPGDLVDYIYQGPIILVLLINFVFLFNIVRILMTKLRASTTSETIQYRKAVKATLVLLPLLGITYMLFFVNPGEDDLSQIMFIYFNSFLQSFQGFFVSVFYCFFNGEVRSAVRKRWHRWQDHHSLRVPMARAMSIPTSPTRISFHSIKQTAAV
T2 sequence (P24387 whole entry): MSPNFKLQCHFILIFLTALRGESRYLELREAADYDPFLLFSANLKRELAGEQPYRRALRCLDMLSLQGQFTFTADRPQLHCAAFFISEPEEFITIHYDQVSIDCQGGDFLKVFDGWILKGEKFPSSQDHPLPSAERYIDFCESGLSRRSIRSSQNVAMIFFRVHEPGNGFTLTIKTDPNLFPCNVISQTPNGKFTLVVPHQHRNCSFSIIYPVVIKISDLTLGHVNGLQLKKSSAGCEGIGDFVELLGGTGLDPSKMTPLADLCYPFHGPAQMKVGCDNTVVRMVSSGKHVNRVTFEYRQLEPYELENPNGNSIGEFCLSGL
Put plainly: activators of CRF receptor 2 with binding protein – uHTS hits, confirmation (AID 602473). It counts as functional. To be noted: read-out: EC50_Mean.

For assay [4], the target named is T2, Corticotropin-releasing factor receptor 2/Corticotropin-releasing factor-binding protein. Put plainly: Dose Response confirmation of uHTS hits for small molecule antagonists of the CRF-binding protein and CRF-R2 receptor complex. It counts as functional. To be noted: read-out: IC50_Mean.
Assay [5] is described as follows: blockers of CRF-binding protein–CRF-R2 complex – cell-based, uHTS hits, 384-well, dose response (AID 651639). The class given is functional, Homo sapiens. To be noted: read-out: IC50_Mean.
Assay [6] concerns the target T3, RNA-binding protein pos-1 (Caenorhabditis elegans, UniProt G5EF15).
T3 sequence (G5EF15 whole entry): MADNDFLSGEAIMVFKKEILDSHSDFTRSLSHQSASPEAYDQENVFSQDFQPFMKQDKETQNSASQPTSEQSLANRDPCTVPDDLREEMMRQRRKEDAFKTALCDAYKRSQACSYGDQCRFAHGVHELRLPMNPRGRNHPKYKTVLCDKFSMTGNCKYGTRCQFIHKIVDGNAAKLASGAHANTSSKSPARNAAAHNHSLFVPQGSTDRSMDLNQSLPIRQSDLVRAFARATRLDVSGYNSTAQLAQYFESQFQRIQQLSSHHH
Kind of assay: disruptors of C. elegans POS-1 RNA interaction – biochemical, fluorescence polarization, dose response (AID 1964).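 Note: purified POS-1 fused to maltose binding protein made in E. coli; potency of compounds blocking POS-1 binding to fluorescent RNA.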

Assay [7] addresses T4, Zinc finger protein mex-5 (Caenorhabditis elegans, UniProt Q9XUB2).
T4 sequence (Q9XUB2 whole entry): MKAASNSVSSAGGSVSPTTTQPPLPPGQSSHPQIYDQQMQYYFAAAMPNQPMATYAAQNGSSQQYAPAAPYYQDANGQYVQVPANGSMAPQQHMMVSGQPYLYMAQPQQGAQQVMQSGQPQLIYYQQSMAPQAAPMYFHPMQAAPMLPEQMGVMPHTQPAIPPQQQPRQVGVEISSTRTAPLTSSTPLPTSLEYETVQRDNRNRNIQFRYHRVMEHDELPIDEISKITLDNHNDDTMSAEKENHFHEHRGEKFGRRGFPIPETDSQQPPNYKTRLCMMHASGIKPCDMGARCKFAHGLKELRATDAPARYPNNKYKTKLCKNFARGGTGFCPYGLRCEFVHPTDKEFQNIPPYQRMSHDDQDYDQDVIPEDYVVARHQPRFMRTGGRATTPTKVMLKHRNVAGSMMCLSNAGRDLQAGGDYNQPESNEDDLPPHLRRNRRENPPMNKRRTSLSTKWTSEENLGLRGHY
Put plainly: potency of MEX-5 RNA-binding blockers – biochemical, C. elegans, fluorescence polarization, dose response (AID 1960). For orientation: Fluorescence polarisation rises when a labelled molecule tumbles more slowly, as on binding a larger partner.

The nature of assay [8]: fluconazole-exposed Candida albicans growth modulators – fluorescence, retest, confirmation (AID 2467). The class given is functional, cell-based.
Assay [9] deals with T5, Sentrin-specific protease 7 (Homo sapiens, UniProt Q9BQF6).
T5 sequence (Q9BQF6 whole entry): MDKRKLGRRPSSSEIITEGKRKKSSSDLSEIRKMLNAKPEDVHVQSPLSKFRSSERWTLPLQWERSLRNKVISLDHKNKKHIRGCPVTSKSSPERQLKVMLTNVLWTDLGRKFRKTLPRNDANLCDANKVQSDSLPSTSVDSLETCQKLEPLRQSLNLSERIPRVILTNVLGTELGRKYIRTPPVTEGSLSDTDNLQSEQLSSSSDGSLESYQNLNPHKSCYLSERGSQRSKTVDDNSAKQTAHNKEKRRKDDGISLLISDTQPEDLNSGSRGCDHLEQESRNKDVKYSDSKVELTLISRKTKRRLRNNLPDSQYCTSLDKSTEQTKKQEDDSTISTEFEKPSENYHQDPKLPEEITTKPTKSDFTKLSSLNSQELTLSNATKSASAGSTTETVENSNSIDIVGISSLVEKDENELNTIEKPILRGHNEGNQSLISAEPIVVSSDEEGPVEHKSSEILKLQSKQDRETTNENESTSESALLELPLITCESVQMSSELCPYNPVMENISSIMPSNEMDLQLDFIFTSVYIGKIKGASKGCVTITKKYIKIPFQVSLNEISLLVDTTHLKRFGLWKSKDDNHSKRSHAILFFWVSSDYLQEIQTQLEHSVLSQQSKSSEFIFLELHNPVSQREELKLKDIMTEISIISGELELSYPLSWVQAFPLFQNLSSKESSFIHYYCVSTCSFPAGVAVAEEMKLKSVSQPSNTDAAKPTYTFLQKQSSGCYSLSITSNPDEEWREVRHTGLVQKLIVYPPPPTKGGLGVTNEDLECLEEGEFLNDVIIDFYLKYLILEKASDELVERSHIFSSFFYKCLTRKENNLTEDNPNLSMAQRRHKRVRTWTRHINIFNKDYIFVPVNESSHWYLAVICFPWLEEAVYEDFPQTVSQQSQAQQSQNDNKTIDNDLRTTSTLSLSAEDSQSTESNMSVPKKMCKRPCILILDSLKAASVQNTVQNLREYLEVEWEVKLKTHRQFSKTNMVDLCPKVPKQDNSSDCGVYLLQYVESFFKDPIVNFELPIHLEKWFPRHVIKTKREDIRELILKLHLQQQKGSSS
The class given is functional.

Assay [10] in a line: NIH-3T3 fibroblast cytotoxicity, dose response, cytotoxicity control, cell-based, fluorescence, Alamar Blue, secondary assay (AID 2327).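 Note: NIH-3T3 mouse fibroblasts cultured with fluconazole at 8 µg/mL.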 The class given is functional. On the technique in general: The colour change of resazurin is a common sign of viable cells or microbes.
Assay [11] addresses T6, Sentrin-specific protease 6 (Homo sapiens, UniProt Q9GZR1).
T6 sequence (Q9GZR1 whole entry): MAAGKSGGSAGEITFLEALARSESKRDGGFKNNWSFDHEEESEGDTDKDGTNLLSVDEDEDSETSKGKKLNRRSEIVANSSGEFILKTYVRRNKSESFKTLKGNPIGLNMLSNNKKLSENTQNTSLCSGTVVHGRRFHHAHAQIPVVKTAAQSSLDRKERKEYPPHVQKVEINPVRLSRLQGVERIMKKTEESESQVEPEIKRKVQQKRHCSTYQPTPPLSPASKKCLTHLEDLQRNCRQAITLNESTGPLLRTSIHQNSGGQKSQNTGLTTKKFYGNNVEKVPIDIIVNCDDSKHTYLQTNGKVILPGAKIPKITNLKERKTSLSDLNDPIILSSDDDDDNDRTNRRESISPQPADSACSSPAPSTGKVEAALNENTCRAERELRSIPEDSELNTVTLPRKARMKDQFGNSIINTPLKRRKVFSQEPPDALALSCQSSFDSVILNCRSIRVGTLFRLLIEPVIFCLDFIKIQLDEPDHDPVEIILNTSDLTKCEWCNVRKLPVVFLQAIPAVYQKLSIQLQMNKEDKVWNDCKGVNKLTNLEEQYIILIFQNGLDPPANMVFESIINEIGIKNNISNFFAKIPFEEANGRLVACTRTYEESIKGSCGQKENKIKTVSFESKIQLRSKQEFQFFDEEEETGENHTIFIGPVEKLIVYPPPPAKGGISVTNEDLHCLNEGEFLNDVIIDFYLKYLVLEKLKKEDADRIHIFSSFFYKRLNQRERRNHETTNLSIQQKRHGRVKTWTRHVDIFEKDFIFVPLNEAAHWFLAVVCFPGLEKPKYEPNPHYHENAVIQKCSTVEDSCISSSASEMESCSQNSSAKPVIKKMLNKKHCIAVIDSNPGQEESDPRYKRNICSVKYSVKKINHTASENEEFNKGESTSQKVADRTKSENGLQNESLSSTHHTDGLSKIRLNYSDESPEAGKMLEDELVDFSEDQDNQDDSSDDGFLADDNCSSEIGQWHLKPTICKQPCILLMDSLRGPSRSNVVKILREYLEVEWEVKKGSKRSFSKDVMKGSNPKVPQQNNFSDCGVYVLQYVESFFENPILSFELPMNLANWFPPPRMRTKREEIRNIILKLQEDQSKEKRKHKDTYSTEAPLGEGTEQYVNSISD
It counts as functional.

Assay [12] concerns the target T7, Sentrin-specific protease 8 (Homo sapiens, UniProt Q96LD8).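 Note: luminescence read-out of SENP8 inhibition, dose-response confirmation following an ultra-high-throughput screen.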
T7 sequence (Q96LD8 whole entry): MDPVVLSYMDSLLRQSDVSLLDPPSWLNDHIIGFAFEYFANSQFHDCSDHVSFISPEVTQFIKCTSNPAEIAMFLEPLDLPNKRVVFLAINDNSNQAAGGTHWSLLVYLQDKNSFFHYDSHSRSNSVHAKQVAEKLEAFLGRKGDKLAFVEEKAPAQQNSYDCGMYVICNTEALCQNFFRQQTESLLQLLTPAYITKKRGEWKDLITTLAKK
The class given is functional.

A further assay has as its target T8, Caspase-3 (Homo sapiens, UniProt P42574).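 Note: Dose-response selectivity test against caspase-3 for candidate inhibitors of sentrin-specific proteases (SENPs).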
T8 sequence (P42574 whole entry): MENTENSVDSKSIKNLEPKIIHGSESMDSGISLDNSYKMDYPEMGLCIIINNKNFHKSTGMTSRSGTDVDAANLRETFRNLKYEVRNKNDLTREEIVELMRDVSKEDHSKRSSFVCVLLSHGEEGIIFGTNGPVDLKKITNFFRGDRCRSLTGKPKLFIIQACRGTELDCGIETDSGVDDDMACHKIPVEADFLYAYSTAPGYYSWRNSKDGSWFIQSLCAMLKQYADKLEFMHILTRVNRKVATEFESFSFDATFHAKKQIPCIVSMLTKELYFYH
It counts as functional.

Calls of active or inactive are those of the source.

For `O=C(C[n+]1cccc(Br)c1)c1ccc(-c2ccccc2)cc1`, the IC50 in assay [1] was 2.83 µM (active); in assay [2], 1 µM (active).
On to `O=C1CC(c2ccccc2)SC(N(c2ccccc2)c2ccccc2)=N1` (stereo not drawn), for which the EC50 in assay [3] is > 53 µM (inactive). Moreover, the IC50 in [4] was 7.25 µM (active); in [5] it was > 20 µM (inactive).
Take `CCC(C)c1ccc(NC(S)=NC(C)C2CCCO2)cc1` (stereo not drawn): the IC50 in assay [1] is 5.01 µM (active); in assay [2], 4.09 µM (active).
As to `Cc1ccc(NC(=O)COC(=O)CCc2c[nH]c3ccccc23)c(C)c1`, the EC50 in assay [3] was > 53 µM (inactive). Further, the IC50 in assay [4] is 4.32 µM (active); in assay [5], 8.75 µM (active).
As to `Cc1n[nH]c(C)c1Sc1ccccc1/N=C/c1cc(Cl)cc([N+](=O)[O-])c1O`, the IC50 is 8.88 µM (active) in assay [1] and 6.23 µM (active) in assay [2]. Moreover, the EC50 in [6] was > 300 µM (inconclusive); in assay [7], 7.57 µM (inconclusive).
`Cc1ccc(SCC(=O)Nc2cc([N+](=O)[O-])ccc2O)cc1`: the EC50 in assay [8] is 0.046 µM (active); in [3], 23.4 µM (active); in assay [10], > 150 µM (inconclusive). Besides, the IC50 in assay [9] was 29.3 µM (active); in assay [4], 2.34 µM (active); in assay [5], 13.5 µM (active); in assay [11], 25.6 µM (active); in assay [12], 31.3 µM (active); at Caspase-3, 17.9 µM (active).
